Experimental findings from patent publication EP0467660A2, “Use of d-limonenes as testosterone-5-alpha-reductase inhibitor and as hair grower” (Miyauchi, Yutaka, priority 1990, dated 1992) are described below.

This experiment concerns testosterone 5α-reductase. The experiment is described as follows: Testosterone 5α-reductase enzymatic activity inhibitory ratio (crude rat prostate enzyme, [4-14C]-testosterone to DHT conversion, TLC). The experiment is classed as biochemical, Wristar male rat. Conditions: 37°C, two hours; for inhibitory effect on the testosterone 5α-reductase activity: result in words, Figs. 3-5. On the procedure:
A Wristar male rat weighing 250-300 g was sacrificed by bleeding, and its prostata was excised. The prostata was cut into fragments under ice-cooling. A 0.1 M HEPES buffer solution (pH: 7.4) containing 0.25 M sucrose (the buffer solution is hereinafter referred to as buffer solution A) was added to the fragments in the amount three times the wet weight of the fragments. Using a Potter-type homogenizer made of Teflon, the mixture was homogenized. The homogenate was filtered using a stainless mesh of a 200 µ size, and then the filtrate was centrifuged at 3000 rpm (900 xg) for ten minutes. The precipitate was suspended in 2.5 parts of buffer solution A, followed by centrifuging at 3000 rpm for five minutes. The residue recovered was suspended in buffer solution A weighing 0.8 times the wet weight of the fragments to produce a crude enzyme solution. The crude enzyme solution was stored at -70°C.
The test sample (less than 10 µl) previously prepared was added to [4-¹⁴C]-testosterone (1.5 nmol, 2.85 kBq), NADPH (0.5 µmol), and the enzyme solution (30 µl) cited above. To this was added the buffer solution A to the extent that the total volume became 100 µl, to prepare a reaction liquid. An enzymatic reaction was performed using the reaction liquid at 37°C for two hours. The enzymatic reaction was initiated by removing the reaction liquid from an ice-water-cooled bath to a 37°C warm bath. The enzymatic reaction was terminated by cooling the reaction liquid in ice-water. […]
A radiation activity of the developed material on the TLC plate cited above was measured by means of an AMBIS image analyzer.
Two spots shown in a chromatogram were subjected to readings of the radiation activities identified by their positions corresponding to testosterone (T) and dihydrotestosterone (DHT) respectively. […] Defining the conversion rate in the presence of the negative control as 100, a percentage of the conversion rate in the presence of the sample was calculated to determine the degree of the enzymatic activity inhibitory ratio of the sample. […]

For `C=C(C)[C@H]1CC=C(C)CC1` [d-limonene], the “inhibitory effect on the testosterone 5α-reductase activity” value is “considerable high inhibitory effect”.

For the compound `CC1(C)[C@@H](O)CC[C@]2(C)[C@H]3C(=O)C=C4[C@@H]5C[C@@](C)(C(=O)O)CC[C@]5(C)CC[C@@]4(C)[C@]3(C)CC[C@@H]12` [sodium β-glycyrrhetinic acid], the IC50 (Fig. 1, 120 min, read-out: amount exhibiting a inhibitory ratio of 50%) was found to be 500 µM.

For the compound `C=C[C@H]1[C@H](O[C@@H]2O[C@H](CO)[C@@H](O)[C@H](O)[C@H]2O)OC=C2C(=O)OCC[C@]21O` [swertiamarin], the “inhibitory effect on the testosterone 5α-reductase activity” value is recorded as “no inhibitory effect”.
